Laboratory results as given in PMC9412414, “A Study on Repositioning Nalidixic Acid via Lanthanide Complexation: Synthesis, Characterization, Cytotoxicity and DNA/Protein Binding Studies” (Pharmaceuticals, 2022).

What follows are compounds tested on LoVo (human colorectal adenocarcinoma) cell line (assay: MTS cytotoxicity assay, LoVo cell line). Details: 48 h of incubation.
Assay type: cell-based
Experimental: (§1) LoVo, MDA-MB-231 and HUVEC human cell lines were purchased from American Type Culture Collection (ATCC). Cells were routinely maintained in culture either in culture flasks or seeded in plates, using Dulbecco’s modified Eagle medium/nutrient mixture F-12 (DMEM:F12) medium supplemented with […], 10% fetal calf serum (Sigma Aldrich, St. Louis, MO, USA), 100 units/mL penicillin, 100 μg/mL streptomycin and incubated at 37 °C in 5% CO2 humidified atmosphere.
(§2) Cytotoxicity studies were performed in 96-well microtiter plates with flat bottoms (Falcon, Teterboro, NJ, USA) using the CellTiter 96 Aqueous One Solution Cell Proliferation Assay (Promega, Madison, WI, USA), an MTS-based colorimetric assay. Metabolically active cells have the ability to reduce MTS [3-(4,5-dimethylthiazol-2-yl)-5-(3-carboxymethoxyphenyl)-2-(4-sulfophenyl)-2H-tetrazolium, inner salt], a yellow tetrazolium salt, to a colored formazan that is soluble in the culture medium. Briefly, 15 × 10^3 cells per well were cultured in 100 µL culture medium. After 24 h, adherent cells were treated with different concentrations of the studied compounds, as well as adriamycin (Adr) and cisplatin (Cis-Pt), used as positive controls for 24 h and 48 h, respectively. Each well was then filled with 20 µL of reagent containing MTS and PES (phenazine ethosulfate, a cationic dye with excellent chemical stability that binds to MTS and produces a stable solution). The resulting formazan was determined using a Tecan GENios Spectrophotometer (Tecan US, Durham, NC, USA) by measuring the absorbance at λ = 492 nm after incubation for 4 h at 37 °C with moderate agitation every 15 min. The cytotoxicity tests were performed in triplicate, with results reported as mean values with standard deviations (SD). The cytotoxicity of DMSO was also investigated under the same conditions, and no harmful effect was found at doses less than 1%.
(§3) Data were expressed as cell viability by comparing with untreated cells considered 100% viable, using the following formula:(1) Cell viability (%)=absorbance of treated cells−absorbance of culture medium/absorbance of untreated cells−absorbance of culture medium

Compound | IC50 | IC50 (μM) LoVo
Tb(C12H11N2O3)3(H2O)2·1.5H2O [Tb(nal)3] | 25.6 ± 6.97 µM | 
CCn1cc(C(=O)[O-])c(=O)c2ccc(C)nc21.CCn1cc(C(=O)[O-])c(=O)c2ccc(C)nc21.O.O.O.O.[Eu+3].[OH-] [Eu(nal)2, Eu(C12H11N2O3)2(OH)(H2O)·3H2O] | > 200 µM | not toxic

Each compound was assayed on HUVEC (human umbilical vein endothelial cells) (assay: MTS cytotoxicity assay, HUVEC normal cell line). Details: 24 h of incubation.
Assay type: cell-based
Experimental: as §1, §2, §3

Compound | IC50
Tb(C12H11N2O3)3(H2O)2·1.5H2O [Tb(nal)3] | 96.2 ± 48.8 µM
CCn1cc(C(=O)[O-])c(=O)c2ccc(C)nc21.CCn1cc(C(=O)[O-])c(=O)c2ccc(C)nc21.O.O.O.O.[Eu+3].[OH-] [Eu(nal)2, Eu(C12H11N2O3)2(OH)(H2O)·3H2O] | > 200 µM

The compounds below were run on EB–DNA system (CT-DNA) (assay: Competitive binding assay with ethidium bromide (EB) through fluorescence spectroscopy). Details: EB 2 µM, CT-DNA 10 µM, compound 0–40 µM.
Parameters: species or system calf
Experimental: The fluorescence spectra were recorded using 1.6 mL samples containing 10 µM CT-DNA, 2 µM EB, and increasing amounts (0–40 µM with an increment of 5 µM) of tested compounds; the samples were prepared by keeping the components in contact for 10 min at room temperature, under continuous stirring and in the dark. The excitation wavelength was 500 nm, and the spectra were recorded between the wavelengths of 520 and 800 nm. A Jasco FP 6500 fluorometer and quartz cells with a 1 cm route length were employed. The classical Stern–Volmer equation (Equation (3)) was used to interpret the obtained data:(3) F0/F=1+KSV·[Q] F0 and F are the fluorescence intensities of the EB–DNA samples in the absence and presence of the tested compounds, respectively; KSV is the Stern–Volmer constant, which was computed as the slope from the plot of F0/F vs. [Q], where [Q] is the chemical concentration.
The binding ratio was plotted against the logarithm of the concentration in comparison with a control sample exposed solely to DMSO. (4) y=A1+(A2−A1)×x^n/K50^n+x^n
For fitting data points, the modified Hill function with offset (Origin®) was used: where y represents the binding ratio (F/F0), x represents the concentration, A1 represents the minimum of y values, A2 represents the maximum of y values, K50 represents the concentration corresponding to 50% binding or the half maximum binding constant, and n represents the Hill coefficient.

Compound | EB Displacement Assay K50 (half maximum binding constant) | KSV, Stern–Volmer quenching constant (EB–DNA)
Tb(C12H11N2O3)3(H2O)2·1.5H2O [Tb(nal)3] | 31.96 ± 10.16 µM | 8.35 ± 0.11 M^−1 (×10^3)
CCn1cc(C(=O)[O-])c(=O)c2ccc(C)nc21.CCn1cc(C(=O)[O-])c(=O)c2ccc(C)nc21.O.O.O.O.[Eu+3].[OH-] [Eu(nal)2, Eu(C12H11N2O3)2(OH)(H2O)·3H2O] | 34.75 ± 3.69 µM | 8.35 ± 0.13 M^−1 (×10^3)

Each compound was assayed against T1, apotransferrin (apo-Tf) (Homo sapiens, UniProt P02787) (assay: Apo-Tf fluorescence quenching binding study). Details: apo-Tf 1 µM, 298 K.
T1 construct: purchased Sigma-Aldrich Chemical Co. (Schnelldorf, Germany)
T1 sequence (P02787 20-698): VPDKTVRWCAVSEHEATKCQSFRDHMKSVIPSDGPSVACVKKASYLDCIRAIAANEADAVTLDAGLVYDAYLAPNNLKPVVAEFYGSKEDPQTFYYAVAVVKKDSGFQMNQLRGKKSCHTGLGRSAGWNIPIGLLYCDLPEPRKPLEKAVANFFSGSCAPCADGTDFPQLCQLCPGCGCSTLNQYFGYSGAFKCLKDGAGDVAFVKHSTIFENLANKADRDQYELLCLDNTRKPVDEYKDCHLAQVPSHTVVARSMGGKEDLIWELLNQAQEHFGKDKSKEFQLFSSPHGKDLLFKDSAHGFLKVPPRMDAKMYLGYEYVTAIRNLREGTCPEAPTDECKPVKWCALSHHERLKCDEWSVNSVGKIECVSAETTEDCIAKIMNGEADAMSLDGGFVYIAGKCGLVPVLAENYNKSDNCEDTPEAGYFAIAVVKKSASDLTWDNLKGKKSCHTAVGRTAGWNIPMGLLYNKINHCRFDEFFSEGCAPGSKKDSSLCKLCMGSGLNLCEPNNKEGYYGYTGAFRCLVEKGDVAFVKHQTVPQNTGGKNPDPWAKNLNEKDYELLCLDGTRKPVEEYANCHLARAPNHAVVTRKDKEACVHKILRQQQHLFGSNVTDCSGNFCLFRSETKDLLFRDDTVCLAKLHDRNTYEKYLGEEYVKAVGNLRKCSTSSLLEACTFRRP
Experimental: (§4) Using a Jasco FP 6500 spectrofluorometer (Jasco, Tokyo, Japan) and quartz cells with a 1 cm path length, the fluorescence spectra of HSA and apo-Tf were recorded in the presence and absence of the examined substances. The 2.5 mL samples containing 2.5 µM HSA or 1 µM apo-Tf were titrated by adding 5 µL of the tested substance at a time, a volume that corresponded to a 1 µM increase in concentration. The concentration range used for these experiments varied from 0 to 8 µM. The relevant spectra were collected in the emission domains of 300–500 nm (HSA) and 305–500 nm (apo-Tf) after 3 min of continuous stirring at room temperature, using excitation wavelengths of 280 nm (HSA) and 295 nm (apo-Tf).
(§5) Experiments were conducted in a pH = 7.4 Tris-HCl buffer (5 mM Tris-HCl/50 mM NaCl for HSA and 5 mM Tris-HCl/50 mM NaCl/25 mM NaHCO3 for apo-Tf).
(§6) The following modified Stern–Volmer equation has been used to calculate the Stern–Volmer constant, which will be denoted as KSV* in order to differentiate it from the Stern–Volmer constant calculated for the DNA binding experiments:(5) F0/F0−F=1/faKsv*[Q]+1/fa where F0 and F are the fluorescence intensities in the absence and presence of the tested compounds, fa is the fraction of fluorophore accessible to the quencher (the tested compounds), [Q] is the quencher concentration, and KSV* (M^−1) is the Stern–Volmer constant; the plot of F0/(F0 − F) against 1/[Q] yields KSV as the slope and fa as the y intercept.
(§7) Subsequently, the bimolecular quenching rate constant was obtained by using Equation (6):(6) Ksv^*=Kqτ0
(§8) Kq (M^−1·s^−1) is the bimolecular quenching rate constant and τ0 is the fluorophore’s lifespan in the absence of the investigated chemicals (10^−8 s). The value of Kq can be used to assess whether the quenching phenomena have an underlying static or dynamic mechanism.
(§9) Using the following equation, the affinity constant (Ka) and the number of binding sites (n) have been calculated: (7) lgF0−F/F=lgKa+nlg[Q]
(§10) The binding affinity, Kd, can be calculated using the quadratic function below:(8) F0−F/F0−Fb=[P]t+[Q]+Kd−([P]t+[Q]+Kd)^2−4[P]t[Q]/2[P]t where F and F0 are the fluorescence intensities of the protein in the presence and absence of the quencher, respectively, Fb is the fluorescence of a fully bound protein–quencher, [P]t is the total concentration of the protein, and [Q] is the concentration of the added quencher. Each binding isotherm was plotted against the total quencher concentration in solution as a function of bound to free protein (F/F0).
(§11) The isotherms were then fitted using the nonlinear regression function below:(9) F/F0= F1+(F2−F1)Kdn/Kdn+[Q]^n where n represents the Hill coefficient, F1 and F2 are the horizontal and vertical asymptotes, respectively. The Kd in Equation (9) is derived from the quadratic binding function (Equation (8)).
(§12) Data were collected in triplicate, averaged, and expressed as mean value ± standard deviation (SD). All graph fitting models were defined and built using OriginPro® 2018.

Compound | Ka (association binding constant), Apo-Tf | n1 (Number of Binding Sites), Apo-Tf
Tb(C12H11N2O3)3(H2O)2·1.5H2O [Tb(nal)3] | (1.63 ± 0.42) × 10^4 M^−1 | 0.83 ± 0.02
CCn1cc(C(=O)[O-])c(=O)c2ccc(C)nc21.CCn1cc(C(=O)[O-])c(=O)c2ccc(C)nc21.O.O.O.O.[Eu+3].[OH-] [Eu(nal)2, Eu(C12H11N2O3)2(OH)(H2O)·3H2O] | (1.02 ± 0.13) × 10^4 M^−1 | 0.80 ± 0.01

Same assay, conditions: apo-Tf 1 µM, 298 K; read-out: Kd (dissociation constant), Apo-Tf

Compound | Kd
Tb(C12H11N2O3)3(H2O)2·1.5H2O [Tb(nal)3] | 5.76 ± 2.6 µM
CCn1cc(C(=O)[O-])c(=O)c2ccc(C)nc21.CCn1cc(C(=O)[O-])c(=O)c2ccc(C)nc21.O.O.O.O.[Eu+3].[OH-] [Eu(nal)2, Eu(C12H11N2O3)2(OH)(H2O)·3H2O] | 7.07 ± 6.13 µM

Same assay, conditions: apo-Tf 1 µM, compound 0–8 µM, 298 K

Compound | fa (fraction of fluorophore accessible to the quencher), Apo-Tf
Tb(C12H11N2O3)3(H2O)2·1.5H2O [Tb(nal)3] | 0.68 ± 0.01
CCn1cc(C(=O)[O-])c(=O)c2ccc(C)nc21.CCn1cc(C(=O)[O-])c(=O)c2ccc(C)nc21.O.O.O.O.[Eu+3].[OH-] [Eu(nal)2, Eu(C12H11N2O3)2(OH)(H2O)·3H2O] | 0.71 ± 0.01

Same assay, conditions: apo-Tf 1 µM, compound 0–8 µM, Tris-HCl pH 7.4, 298 K

Compound | Ksv* (Stern–Volmer quenching constant), Apo-Tf
Tb(C12H11N2O3)3(H2O)2·1.5H2O [Tb(nal)3] | (2.70 ± 0.11) × 10^5 M^−1
CCn1cc(C(=O)[O-])c(=O)c2ccc(C)nc21.CCn1cc(C(=O)[O-])c(=O)c2ccc(C)nc21.O.O.O.O.[Eu+3].[OH-] [Eu(nal)2, Eu(C12H11N2O3)2(OH)(H2O)·3H2O] | (1.85 ± 0.06) × 10^5 M^−1

Same assay, conditions: apo-Tf 1 µM, compound up to 8 µM

Compound | quenching effect on apo-Tf fluorescence peak
CCn1cc(C(=O)[O-])c(=O)c2ccc(C)nc21.CCn1cc(C(=O)[O-])c(=O)c2ccc(C)nc21.O.O.O.O.[Eu+3].[OH-] [Eu(nal)2, Eu(C12H11N2O3)2(OH)(H2O)·3H2O] | 41%

Same assay, conditions: from Ksv* with τ0 = 10^−8 s, 298 K

Compound | Kq (bimolecular quenching constant), Apo-Tf
Tb(C12H11N2O3)3(H2O)2·1.5H2O [Tb(nal)3] | 2.7e+13 M⁻¹ s⁻¹
CCn1cc(C(=O)[O-])c(=O)c2ccc(C)nc21.CCn1cc(C(=O)[O-])c(=O)c2ccc(C)nc21.O.O.O.O.[Eu+3].[OH-] [Eu(nal)2, Eu(C12H11N2O3)2(OH)(H2O)·3H2O] | 1.85e+13 M⁻¹ s⁻¹

The compounds below were run against T2, human serum albumin (HSA) (Homo sapiens, UniProt P02768) (assay: HSA fluorescence quenching binding study). Details: HSA 2.5 µM, 298 K.
T2 construct: purchased Sigma-Aldrich Chemical Co. (Schnelldorf, Germany)
T2 sequence (P02768 25-609): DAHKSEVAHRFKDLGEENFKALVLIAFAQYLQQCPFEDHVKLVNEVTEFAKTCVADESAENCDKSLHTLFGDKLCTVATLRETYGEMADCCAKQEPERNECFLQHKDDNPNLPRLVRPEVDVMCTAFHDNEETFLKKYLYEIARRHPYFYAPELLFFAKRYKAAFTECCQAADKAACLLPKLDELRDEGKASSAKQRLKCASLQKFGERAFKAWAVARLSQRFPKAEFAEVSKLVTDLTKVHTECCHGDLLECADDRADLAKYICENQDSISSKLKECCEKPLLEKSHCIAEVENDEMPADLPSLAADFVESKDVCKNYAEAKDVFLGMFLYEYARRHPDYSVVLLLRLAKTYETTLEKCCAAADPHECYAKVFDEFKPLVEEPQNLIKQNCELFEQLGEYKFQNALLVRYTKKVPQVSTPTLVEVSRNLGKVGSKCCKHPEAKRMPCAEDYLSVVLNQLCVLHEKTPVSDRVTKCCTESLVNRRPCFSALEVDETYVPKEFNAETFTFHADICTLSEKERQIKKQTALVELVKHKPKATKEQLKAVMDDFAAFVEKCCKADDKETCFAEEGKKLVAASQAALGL
Experimental: as §4, §5, §6, §7, §8, §9, §10, §11, §12

Compound | Ka (association binding constant), HSA | n1 (Number of Binding Sites), HSA | n2 (Hill Coefficient), HSA
Tb(C12H11N2O3)3(H2O)2·1.5H2O [Tb(nal)3] | (31.26 ± 9.66) × 10^5 M^−1 | 1.18 ± 0.02 | 0.89 ± 0.35
CCn1cc(C(=O)[O-])c(=O)c2ccc(C)nc21.CCn1cc(C(=O)[O-])c(=O)c2ccc(C)nc21.O.O.O.O.[Eu+3].[OH-] [Eu(nal)2, Eu(C12H11N2O3)2(OH)(H2O)·3H2O] | (11.99 ± 1.38) × 10^5 M^−1 | 1.13 ± 0.01 | 1.14 ± 0.27

Same assay, conditions: HSA 2.5 µM, 298 K; read-out: Kd (dissociation constant), HSA

Compound | Kd
Tb(C12H11N2O3)3(H2O)2·1.5H2O [Tb(nal)3] | 4.61 ± 1.67 µM
CCn1cc(C(=O)[O-])c(=O)c2ccc(C)nc21.CCn1cc(C(=O)[O-])c(=O)c2ccc(C)nc21.O.O.O.O.[Eu+3].[OH-] [Eu(nal)2, Eu(C12H11N2O3)2(OH)(H2O)·3H2O] | 4.63 ± 0.97 µM

Same assay, conditions: HSA 2.5 µM, compound 0–8 µM, 298 K

Compound | fa (fraction of fluorophore accessible to the quencher), HSA
Tb(C12H11N2O3)3(H2O)2·1.5H2O [Tb(nal)3] | 1.13 ± 0.02
CCn1cc(C(=O)[O-])c(=O)c2ccc(C)nc21.CCn1cc(C(=O)[O-])c(=O)c2ccc(C)nc21.O.O.O.O.[Eu+3].[OH-] [Eu(nal)2, Eu(C12H11N2O3)2(OH)(H2O)·3H2O] | 1.17 ± 0.04

Same assay, conditions: HSA 2.5 µM, compound 0–8 µM, Tris-HCl pH 7.4, 298 K

Compound | Ksv* (Stern–Volmer quenching constant), HSA
CCn1cc(C(=O)[O-])c(=O)c2ccc(C)nc21.CCn1cc(C(=O)[O-])c(=O)c2ccc(C)nc21.O.O.O.O.[Eu+3].[OH-] [Eu(nal)2, Eu(C12H11N2O3)2(OH)(H2O)·3H2O] | (1.75 ± 0.11) × 10^5 M^−1

Same assay, conditions: HSA 2.5 µM, compound up to 8 µM

Compound | quenching effect on HSA fluorescence peak
CCn1cc(C(=O)[O-])c(=O)c2ccc(C)nc21.CCn1cc(C(=O)[O-])c(=O)c2ccc(C)nc21.O.O.O.O.[Eu+3].[OH-] [Eu(nal)2, Eu(C12H11N2O3)2(OH)(H2O)·3H2O] | 67%

Same assay, conditions: from Ksv* with τ0 = 10^−8 s, 298 K

Compound | Kq (bimolecular quenching constant), HSA
Tb(C12H11N2O3)3(H2O)2·1.5H2O [Tb(nal)3] | 2.39e+13 M⁻¹ s⁻¹
